{"source": "patent US20130190370A1", "about": "“Novel Tetrahydronaphalene Antagonists to the Thromboxane A2 (TP) Receptor” (The Trustees of the University of Pennsylvania, priority 2010, published 2013)", "key": {"in vivo": {"assay": "in vivo", "details": "female, B6C3HF1, mouse, in vivo, ip, 5 mg/kg", "procedure": "One-month old B6C3HF1 female mice were given intraperitoneal injections of compounds at 5 mg/kg. 1 hour after injection, mice were lethally anesthetized with an intraperitoneal injection of ketamine hydrochloride (1 mg/10 g) and xylazine (0.1 mg/10 g) and perfused intracardially with PBS in accordance with protocols approved by the University of Pennsylvania.\nBrain samples were homogenized in 10 mM ammonium acetate, pH 5.7 (1:2; w/v) using a handheld sonic homogenizer. Compound from 50 μL of brain homogenate or plasma was extracted with 200 μL acetonitrile, centrifuged, and the supernatant removed for LC/MS/MS analysis. Compounds were detected using multiple reaction monitoring (MRM) of their specific collision-induced ion transitions and quantified using peak areas.\nThe LC/MS/MS system was comprised of an Agility UPLC, a TQ MS, and controlled using MassLynx software (Waters Corporation, Milford, Mass., USA). Samples were separated on an Aquity BEH C18 column (1.7 μm, 2.1×50 mm) at 35° C. For operation in positive electrospray ionization mode, the mobile phase A was 0.1% (v/v) formic acid, and B was either acetonitrile or methanol with 0.1% (v/v) formic acid. For operation in negative electrospray ionization mode, the mobile phase A was 10 mM ammonium acetate, and B was methanol with 10 mM ammonium acetate, Injections of 5 μL were separated at a flow rate of 0.6 mL/min using a gradient from 5% to 95% B over two minutes followed by wash and re-equilibration steps.\nThe MS was operated with a desolvation temperature of 450° C. and a source temperature of 150° C. Desolvation and source nitrogen gas flows were 900 L/hr and 50 L/hr, respectively. Collision cell argon gas flow was 0.1 mL/min. Source and analyzer voltages were optimized for each compound using the MassLynx auto tune utility. Compound standards at 1000 ng/mL in 50% acetonitrile were infused at 30 μL/min and combined with flow from the UPLC at 0.6 mL/min and 50% B.\nStandard curves were generated from spiked brain homogenate and plasma prepared at 4, 40, 400 and 4000 ng/mL and extracted as above. Peak area was plotted versus concentration and a 1/x weighted linear regression curve was used to quantify the unknowns using the average peak area from triplicate injections,\nThe following experiments were designed to analyze TP receptor antagonists to determine their relative BBB penetration. The TP receptor antagonists were administered via i.p. injection at 5 mg/kg to normal mice, and brain and plasma compound concentrations were assessed by LC-MS/MS at 1 and 4 hours after dosing.\nTo examine the blood-brain barrier permeability of these compounds, one-month old B6C3F1 mice were injected at 5 mg/kg and sacrificed 1 hour after injection."}, "[1]": {"assay": "Unbound fractions in plasma and brain homogenates by equilibrium dialysis", "type": "in vitro ADME", "details": "for fraction unbound: equilibrium dialysis", "source_text": "Without wishing to be bound by any particular theory, it is believed that it is possible (although uncommon) for a BBB-permeable compound to have a very low B/P ratio if the fraction of free, unbound drug is much greater in the […]. More specifically, a drug that is freely diffusible across the BBB will at equilibrium have a free drug B/P ratio (B/Pfree)=1, where B/Pfree=B/P×fu(brain))/fu(plasma) (Maurer, et al., 2005, Drug Metab Dispos. 33:175-181; Kalvasset al., 2007, Drug Metab Dispos. 35:660-666) and fti represents unbound drug fractions. […] To ensure that the low B/P ratios obtained with the TP antagonists of Table 1 were truly reflective of poor BBB permeability, the unbound fractions in plasma and brain homogenates were measured using established equilibrium dialysis methods (Maurer, et al., 2005, Drug Metab Dispos. 33:175-181; Kalvasset al., 2007, Drug Metab Dispos. 35:660-666; Friden, et al., 2007, Drug Metab Dispos. 35:1711-1719). […] This is further illustrated by comparing the calculated B/Pfree ratios (Table 1), which are <<1. Because the existing repertoire of TP receptor antagonists share common structural features, including free carboxylate moieties, it is highly unlikely that any of these existing compounds would be sufficiently brain-penetrant to be potential AD therapeutics."}, "Tg2576 mice": {"test_system": "Tg2576 mice", "details": "cited from earlier work"}, "[2]": {"details": "B/Pfree (unbound drug brain-to-plasma ratio)"}}, "note": "Like-named read-outs stand apart in the source and are kept apart here."}
{"compound": "Cc1ccc2c(c1CCC(=O)O)CC[C@@H](NS(=O)(=O)c1ccc(Cl)cc1)C2", "note": "[Compound S18886]", "values": [{"measurement": "Kp at 1 h", "setting": "in vivo; B/P (brain-to-plasma ratio)", "result": 0.02}, {"measurement": "Kp at 4 h", "setting": "in vivo; B/P (brain-to-plasma ratio)", "result": 0.05}, {"measurement": "Kp at 1 h", "setting": "in vivo; [2]", "result": 0.04}, {"measurement": "Kp at 4 h", "setting": "in vivo; [2]", "result": 0.08}, {"measurement": "concentration at 1 h", "setting": "in vivo; Brain", "result": 42.4, "unit": "ng/mL"}, {"measurement": "concentration at 4 h", "setting": "in vivo; Brain", "result": 9, "unit": "ng/mL"}, {"measurement": "concentration at 1 h", "setting": "in vivo; Plasma", "result": 1710, "unit": "ng/mL"}, {"measurement": "concentration at 4 h", "setting": "in vivo; Plasma", "result": 190, "unit": "ng/mL"}, {"measurement": "fraction unbound", "setting": "[1]; brain homogenate, read-out: fu(brain) (fraction unbound)", "result": 0.044}, {"measurement": "plasma/brain unbound fraction ratio", "setting": "[1]; plasma and brain homogenate, ratio of unbound fractions plasma/brain, read-out: fu(pl)/fu(br)", "result": 0.59}, {"measurement": "fraction unbound", "setting": "[1]; plasma, read-out: fu(plasma) (fraction unbound)", "result": 0.026}, {"measurement": "Aβ levels", "setting": "Tg2576 mice; Tg2576 mice, drinking water", "result": "reduced Aβ levels"}, {"measurement": "plaque load", "setting": "Tg2576 mice; long-term treatment, relative to untreated mice", "result": "significant diminution of plaque load"}]}
